The target in assay [1] is T1, SBPase (Arabidopsis thaliana, UniProt P46283).
T1 construct: gene At3g55800
T1 sequence (P46283 75-393): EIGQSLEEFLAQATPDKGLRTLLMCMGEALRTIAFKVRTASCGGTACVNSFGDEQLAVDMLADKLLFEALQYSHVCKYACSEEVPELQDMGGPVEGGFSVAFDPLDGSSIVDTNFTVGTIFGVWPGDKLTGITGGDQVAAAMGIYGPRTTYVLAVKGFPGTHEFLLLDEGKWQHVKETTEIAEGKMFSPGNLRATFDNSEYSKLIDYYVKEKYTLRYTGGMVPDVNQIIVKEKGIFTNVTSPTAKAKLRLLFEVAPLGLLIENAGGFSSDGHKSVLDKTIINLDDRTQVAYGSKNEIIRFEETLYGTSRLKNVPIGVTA
Kind of assay: malachite green phosphate release assay. The format is biochemical. Conditions: read-out: % inhibition at 10 mM.

Assay [2] concerns the target T1, SBPase. The assay can be described thus: malachite green phosphate release assay. Type of assay: biochemical. Conditions: 500 µM; alternative substrate; 15 mM MgCl2, 10 mM DTT; thioredoxin F1-activated; room temperature activation.

The values that follow come from publication PMC11444284, “Chloroplastic ascorbate modifies plant metabolism and may act as a metabolite signal regardless of oxidative stress” (Plant Physiology, 2024).

`O=C1O[C@H]([C@@H](O)CO)C(O)=C1O` [Ascorbate]: the inhibition – broadly, the share of the control response that was lost under treatment – at 10000 µM at SBPase [1] is approximately 57%.

Turning to `O=P(O)(O)OC[C@H]1OC(O)(COP(=O)(O)O)[C@@H](O)[C@@H]1O` (some centres unmarked) [fructose-1-6-bisphosphate], the “malachite green phosphate release assay” value at SBPase [2] is given as “conversion rate of the alternative SBPase substrate fructose-1-6-bisphosphate to fructose-6-phosphate”.
